The values below come from patent EP3697386B1, “LIQUID COMPOSITIONS FOR PERORAL USE COMPRISING PHOSPHATIDYLGLYCEROL DERIVATIVES AND T[…] TREATING CARDIAC CHANN[…] BY PHARMACOLOGICAL AGENTS” (Signpath Pharma, Inc., priority 2017, dated 2019).

In the series the target is hERG (Homo sapiens, UniProt Q12809). In words: Whole-cell patch-clamp of IKr hERG tail current: protective effect of lipids against hERG inhibition by Nilotinib. To be noted: for activity at 5 min: human, herg hek293 cells.
Sequence of hERG (Q12809 whole entry): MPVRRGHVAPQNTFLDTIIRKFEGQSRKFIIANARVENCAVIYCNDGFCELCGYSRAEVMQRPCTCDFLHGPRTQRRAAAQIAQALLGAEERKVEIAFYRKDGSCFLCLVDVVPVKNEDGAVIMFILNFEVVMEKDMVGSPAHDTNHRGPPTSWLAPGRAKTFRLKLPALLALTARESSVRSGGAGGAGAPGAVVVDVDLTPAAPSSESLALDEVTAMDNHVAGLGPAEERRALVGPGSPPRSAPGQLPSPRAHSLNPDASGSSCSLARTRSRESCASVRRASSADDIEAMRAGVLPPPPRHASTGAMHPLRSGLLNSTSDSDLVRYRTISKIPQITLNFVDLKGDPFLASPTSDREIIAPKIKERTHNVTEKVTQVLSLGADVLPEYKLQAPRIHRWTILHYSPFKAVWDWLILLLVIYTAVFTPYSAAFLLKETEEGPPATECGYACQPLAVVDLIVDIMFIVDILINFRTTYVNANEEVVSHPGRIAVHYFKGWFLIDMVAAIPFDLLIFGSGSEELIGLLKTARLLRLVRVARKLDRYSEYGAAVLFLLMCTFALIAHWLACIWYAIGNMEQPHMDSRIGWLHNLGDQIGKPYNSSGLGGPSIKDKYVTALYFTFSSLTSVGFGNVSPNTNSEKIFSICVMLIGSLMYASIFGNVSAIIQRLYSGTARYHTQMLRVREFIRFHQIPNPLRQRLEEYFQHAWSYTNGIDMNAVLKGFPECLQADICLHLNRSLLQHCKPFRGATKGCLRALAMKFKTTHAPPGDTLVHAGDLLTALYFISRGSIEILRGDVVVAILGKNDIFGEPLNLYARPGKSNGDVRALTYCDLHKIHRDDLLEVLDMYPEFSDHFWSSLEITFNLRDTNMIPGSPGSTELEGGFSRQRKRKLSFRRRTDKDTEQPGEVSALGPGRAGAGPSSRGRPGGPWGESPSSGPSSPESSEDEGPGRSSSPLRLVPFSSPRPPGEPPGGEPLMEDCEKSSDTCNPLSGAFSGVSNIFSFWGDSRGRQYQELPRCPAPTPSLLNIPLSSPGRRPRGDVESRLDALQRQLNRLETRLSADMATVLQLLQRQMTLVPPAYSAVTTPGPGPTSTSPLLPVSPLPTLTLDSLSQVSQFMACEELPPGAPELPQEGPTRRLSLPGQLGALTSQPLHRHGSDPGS

Regarding “12-Mysteroyl-2-Hydroxy-sn-Glycero-3-[Phospho-rac-(glycerol)] [DMPG]”, where the note is “lipid alone in aqueous solution, 5 minutes exposure, hERG-transfected HEK 293 cells, tail current at -55 mV, baseline = 1.000”, the “Normalized Current Density” value amounted to 0.800.
With `CCCCCCCCCCCCCC(=O)OC[C@H](COP(=O)([O-])OCC[N+](C)(C)C)OC(=O)CCCCCCCCCCCCC` [DMPC, 1,2-dimyristoyl-sn-glycero-3-phosphocholine], the activity at 5 min came to 106%. Moreover, the activity at 5 min (Normalized Current Density, lipid alone in aqueous solution, 5 minutes exposure, hERG-transfected HEK 293 cells, tail current at -55 mV, baseline = 1.000) was 86.3%.
